Measurements published in PubChem BioAssay AID248 (DTP/NCI, 2004).
Several values for one entry are separate records, joined by “and”; a condition that tells them apart may be missing. Equal entries are not always repeated. Toxic doses and inconclusive results are not listed. Rule as the data show it: active = T/C of 150% or more; inactive = T/C below 125%.

Tested on: L1210 leukemia ip in BDF1 mice, survival T/C
Assay: NCI In Vivo Anticancer Drug Screen. Data for tumor model L1210 Leukemia (intraperitoneal) in B6D2F1 (BDF1) mice
Conditions: endpoint: mean survival time, higher = longer survival
Outline: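 Tumor was transplanted into mice, which were then dosed with test compound or vehicle alone. Survival was recorded for each group, and the treated figure was expressed relative to the control figure.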

[1] = dose: 100.0 mg/kg/injection, schedule: Q01DX001 (ip), vehicle: saline
[2] = dose: 100.0 mg/kg/injection, schedule: Q01DX009 (ip), vehicle: saline with Tween-80
[3] = dose: 100.0 mg/kg/injection, schedule: Q04DX002 (ip), vehicle: saline with Tween-80
[4] = dose: 100.0 mg/kg/injection, schedule: Q04DX003 (ip), vehicle: saline with Tween-80
[5] = dose: 200.0 mg/kg/injection, schedule: Q01DX009 (ip), vehicle: saline with Tween-80
[6] = dose: 200.0 mg/kg/injection, schedule: Q04DX002 (ip), vehicle: saline with Tween-80
[7] = dose: 200.0 mg/kg/injection, schedule: Q04DX003 (ip), vehicle: saline with Tween-80
[8] = dose: 400.0 mg/kg/injection, schedule: Q01DX009 (ip), vehicle: saline with Tween-80
[9] = dose: 400.0 mg/kg/injection, schedule: Q04DX002 (ip), vehicle: saline with Tween-80
[10] = dose: 400.0 mg/kg/injection, schedule: Q04DX003 (ip), vehicle: saline with Tween-80
[11] = dose: 100.0 mg/kg/injection, schedule: Q04DX002 (ip), vehicle: Klucel (hydroxypropylcellulose) (HPC)
[12] = dose: 200.0 mg/kg/injection, schedule: Q04DX002 (ip), vehicle: Klucel (hydroxypropylcellulose) (HPC)

Measured: T/C

CN=NC(=O)c1cccc2c1-c1ccccc1C2=O
inactive: dose: 100.0 mg/kg/injection, schedule: Q01DX001 (ip), vehicle: other 87 % of control | dose: 200.0 mg/kg/injection, schedule: Q01DX001 (ip), vehicle: other 96 % of control | dose: 400.0 mg/kg/injection, schedule: Q01DX001 (ip), vehicle: other 93 % of control

O=P(O)(O)/C=C/c1ccccc1
inactive: [1] 97 % of control | dose: 100.0 mg/kg/injection, schedule: Q04DX003 (ip), vehicle: Klucel (hydroxypropylcellulose) (HPC) 90 % of control | dose: 200.0 mg/kg/injection, schedule: Q01DX001 (ip), vehicle: saline 91 % of control | dose: 200.0 mg/kg/injection, schedule: Q04DX003 (ip), vehicle: Klucel (hydroxypropylcellulose) (HPC) 98 % of control | dose: 400.0 mg/kg/injection, schedule: Q01DX001 (ip), vehicle: saline 98 % of control

O=c1c2ccccc2nc(-c2ccccc2)n1/N=C/c1cccnc1
inactive: dose: 100.0 mg/kg/injection, schedule: Q01DX009 (ip), vehicle: Klucel (hydroxypropylcellulose) (HPC) 90 % of control | dose: 200.0 mg/kg/injection, schedule: Q01DX009 (ip), vehicle: Klucel (hydroxypropylcellulose) (HPC) 98 % of control | dose: 400.0 mg/kg/injection, schedule: Q01DX009 (ip), vehicle: Klucel (hydroxypropylcellulose) (HPC) 104 % of control

Cc1cc(C)c(NC(=S)NC(=O)C(C)Oc2ccccc2)c(C)c1 (stereo unspecified)
inactive: dose: 100.0 mg/kg/injection, schedule: Q01DX001 (ip), vehicle: saline with Tween-80 97 % of control | [2] 96 % of control and 100 % of control | [3] 101 % of control and 104 % of control | [4] 93 % of control | dose: 200.0 mg/kg/injection, schedule: Q01DX001 (ip), vehicle: saline with Tween-80 97 % of control | [5] 97 % of control and 92 % of control | [6] 97 % of control and 110 % of control | [7] 93 % of control | dose: 400.0 mg/kg/injection, schedule: Q01DX001 (ip), vehicle: saline with Tween-80 103 % of control | [8] 102 % of control | [9] 93 % of control and 121 % of control | [10] 93 % of control

Cc1nc(S(C)(=O)=O)nc(S(C)(=O)=O)c1Cl
inactive: dose: 1.5 mg/kg/injection, schedule: Q01DX001 (ip), vehicle: Klucel (hydroxypropylcellulose) (HPC) 92 % of control | dose: 3.0 mg/kg/injection, schedule: Q01DX001 (ip), vehicle: Klucel (hydroxypropylcellulose) (HPC) 95 % of control | dose: 6.0 mg/kg/injection, schedule: Q01DX001 (ip), vehicle: Klucel (hydroxypropylcellulose) (HPC) 104 % of control | dose: 12.0 mg/kg/injection, schedule: Q01DX001 (ip), vehicle: Klucel (hydroxypropylcellulose) (HPC) 104 % of control | dose: 12.5 mg/kg/injection, schedule: Q01DX001 (ip), vehicle: Klucel (hydroxypropylcellulose) (HPC) 107 % of control

COC(=O)c1cn2cc(Cl)cc(Cl)c2c1C(=O)OC
inactive: [3] 95 % of control | [6] 92 % of control | [9] 95 % of control

Clc1ccccc1/C=C1\c2ccc(Br)cc2-c2cccc[n+]21
inactive: dose: 75.0 mg/kg/injection, schedule: Q01DX001 (ip), vehicle: other 87 % of control

C=CC1(O)CCOCC1
inactive: dose: 25.0 mg/kg/injection, schedule: Q01DX001 (ip), vehicle: saline 97 % of control | dose: 50.0 mg/kg/injection, schedule: Q01DX001 (ip), vehicle: saline 97 % of control | [1] 97 % of control

O=C1CCC(=O)N1CCCO
inactive: dose: 100.0 mg/kg/injection, schedule: Q04DX003 (ip), vehicle: saline 107 % of control | dose: 200.0 mg/kg/injection, schedule: Q04DX003 (ip), vehicle: saline 100 % of control | dose: 400.0 mg/kg/injection, schedule: Q04DX003 (ip), vehicle: saline 104 % of control

NC(=S)N/N=C\c1c(Cl)[nH]c2ccc(/C=N/NC(N)=S)cc12
inactive: dose: 50.0 mg/kg/injection, schedule: Q04DX002 (ip), vehicle: Klucel (hydroxypropylcellulose) (HPC) 97 % of control | [11] 90 % of control | [12] 94 % of control

Cc1c(C(=O)O)[nH]c(=O)[nH]c1=O
inactive: dose: 100.0 mg/kg/injection, schedule: Q01DX Z (ip), vehicle: methylcellulose (MC) 90 % of control | dose: 200.0 mg/kg/injection, schedule: Q01DX Z (ip), vehicle: methylcellulose (MC) 97 % of control

CC(O)(C(N)=O)c1cc(Cl)ccc1Cl (stereo unspecified)
inactive: dose: 100.0 mg/kg/injection, schedule: Q01DX009 (ip), vehicle: water 94 % of control | dose: 100.0 mg/kg/injection, schedule: Q04DX003 (ip), vehicle: water 90 % of control | dose: 200.0 mg/kg/injection, schedule: Q01DX009 (ip), vehicle: water 96 % of control | dose: 200.0 mg/kg/injection, schedule: Q04DX003 (ip), vehicle: water 95 % of control | dose: 400.0 mg/kg/injection, schedule: Q01DX009 (ip), vehicle: water 107 % of control | dose: 400.0 mg/kg/injection, schedule: Q04DX003 (ip), vehicle: water 96 % of control

CCCCCP(=S)(CCCC)CCCCC
inactive: [11] 98 % of control | [12] 94 % of control | dose: 400.0 mg/kg/injection, schedule: Q04DX002 (ip), vehicle: Klucel (hydroxypropylcellulose) (HPC) 94 % of control

O=c1cc(CNc2ccc(Cl)cc2)[nH]c(=O)[nH]1
inactive: [4] 98 % of control | [7] 101 % of control | [10] 95 % of control

Oc1ccc(C=NCCN=Cc2ccc(O)cc2O)c(O)c1
inactive: dose: 8.0 mg/kg/injection, schedule: Q01DX009 (ip), vehicle: saline with Tween-80 87 % of control | dose: 12.0 mg/kg/injection, schedule: Q01DX009 (ip), vehicle: saline with Tween-80 89 % of control

CC1(c2cccc(N)c2)OCCO1
inactive: [2] 100 % of control | [4] 94 % of control | [5] 102 % of control | [7] 100 % of control | [8] 91 % of control | [10] 97 % of control

CN(CCCN1C(=O)c2ccccc2C1=O)c1ccc(NS(=O)(=O)c2ccc([N+](=O)[O-])cc2)cc1
inactive: dose: 100.0 mg/kg/injection, schedule: Q01DX001 (ip), vehicle: Klucel (hydroxypropylcellulose) (HPC) 100 % of control | dose: 200.0 mg/kg/injection, schedule: Q01DX001 (ip), vehicle: Klucel (hydroxypropylcellulose) (HPC) 103 % of control | dose: 400.0 mg/kg/injection, schedule: Q01DX001 (ip), vehicle: Klucel (hydroxypropylcellulose) (HPC) 97 % of control
